From patent EP2362225 (dated 2011)
“Also recorded” adds a separate entry of the source.

How the values were obtained:
[1] = test system: 20S proteasomes of T2 cells (standard proteasome); assay: T2 20S proteasomes (standard proteasome) in Hepes buffer; conditions: human, 37°C, up to 48 hours
[2] = test system: LcL 20S proteasomes; assay: 3 µg LcL 20S proteasomes in 100 µl buffer; gp10040-52 and its heavy analogue digested together; conditions: human, up to 36 hours
[3] = test system: proteasome
[4] = test system: 20S proteasomes of T2.27 cells (immunoproteasomes); assay: T2.27 20S proteasomes (immunoproteasomes) in Hepes buffer; conditions: human T2 cells transfected with murine LMP2 and LMP7 subunits, 37°C, up to 48 hours
[5] = test system: 20S proteasomes of Lymphoblastoid cell Lines (LcL); assay: LcL 20S proteasomes in Hepes buffer (Hepes 20 mM, KCI 1 mM, MgCl 0.5 mM, DTT 1 mM, NaN3 1 mM, pH 7.3); conditions: human, 37°C, up to 48 hours
[6] = test system: T2.27 20S proteasomes (immunoproteasomes); assay: 20S proteasomes purified from T2.27 cells in Hepes buffer; conditions: human T2 cells transfected with murine LMP2 and LMP7, 37°C, up to 48 hours
[7] = test system: T2 20S proteasomes (standard proteasome); assay: 20S proteasomes purified from T2 cells in Hepes buffer; conditions: human, 37°C, up to 48 hours

fragment found [3] | fragment found [7] | Substance | fragment found [1] | fragment found [2] | fragment found [4] | fragment found [5] | fragment found [6]
gp10040-42/47-52 [RTK][QLYPEW] | gp10047-52/40-42 [QLYPEW][RTK] | RTKAWNRQLYPEW | [RTK][QLYPEW]; also recorded: [QLYPEW][RTK] | gp10040-042/47-52-α; also recorded: gp10047-52/40-42-α | [RTK][QLYPEW]; also recorded: [QLYPEW][RTK] | gp10040-42/47-52 [RTK][QLYPEW]; also recorded: gp10047-52/40-42 [QLYPEW][RTK] | gp10040-42/47-52 [RTK][QLYPEW]; also recorded: gp10047-52/40-42 [QLYPEW][RTK]
 |  | RTK^+6AWNRQL^+1YPEW |  | gp10040-42/47-52-δ; also recorded: gp10047-52/40-42-δ |  |  | 
 |  | VSRQLRTKAWNRQLYPEWTEAQR | [VSRQL][VSRQL] (gp10035-39/35-39); also recorded: [QLYPEWTEA][VSRQL] (gp10047-55/35-39) |  | [VSRQL][VSRQL] (gp10035-39/35-39); also recorded: [QLYPEWTEA][VSRQL] (gp10047-55/35-39) |  | 
